Tests used:
[1] = test system: normotensive rats (male Wistar strain); experiment: Effect on normotensive rats (hypotensive activity, mean arterial pressure after intravenous dosing); assay type: in vivo, rat; settings: 1.0 mg/kg intravenously
Procedure: Male Wistar strain rats aged 10-11 weeks, weighing about 250 g were used after going unfed overnight. Under ether anesthesia, polyethylene cannula were inserted in the femoral artery for measuring blood pressure and in the femoral vein for injection of the test compound. About 2 hours after the operation, test compound was given intravenously. Blood pressure was measured at the femoral artery by means of a pressure transducer and recorded as electrically integrated values of mean arterial pressure.

[2] = test system: spontaneous hypertensive rats; experiment: Effect on spontaneous hypertensive rats (hypotensive activity, mean blood pressure after oral dosing); assay type: in vivo, rat
Procedure: 14 to 17-week-old male spontaneous hypertensive rats with mean arterial blood pressure of about 150 mmHg, weighing 300-375 g, were used. The animals were cannulated in the left femoral artery and the mean blood pressure and heart rate were measured with a pressure-transducer. The drugs were given orally. The animals were deprived of food for about 18 hours before oral dosing. The test drugs were suspended in 0.5% methylcellulose, and given in oral dose of 0.1 mg/kg and 1.0 mg/kg.

SMILES | Effect Max (maximum decrease of blood pressure, mean ratio) [1] [%] | Effect max (maximum decrease of blood pressure, mean ratio) ([2]; 0.1 mg/kg orally) [%] | T 1/2 (duration of half of maximum decrease of blood pressure) ([2]; 0.1 mg/kg orally) [h] | Effect max (maximum decrease of blood pressure, mean ratio) ([2]; 1.0 mg/kg orally) [%] | T 1/2 (duration of half of maximum decrease of blood pressure) ([2]; 1.0 mg/kg orally) [h]
CN1CCN([C@@H]2c3cc(C#N)ccc3OC(C)(C)[C@H]2O)C1=NC#N (relative stereo) [trans-4-(2-Cyanoimino-3-methylimidazolidin-1-yl)-3,4-dihydro-3-hydroxy-2,2-dimethyl-2H-1-benzopyran-6-carbonitrile] | 48.0 |  |  |  | 
CC1(C)Oc2ccc(C#N)cc2[C@@H](N2CCSC2=NC#N)[C@@H]1O [(3S,4R)-4-(2-Cyanoiminothiazolidin-3-yl)-3,4-dihydro-3-hydroxy-2,2-dimethyl-2H-1-benzopyran-6-carbonitrile] |  | 20.7 | 2.25 | 60.0 | 3.75

From patent publication US4988723A, “Benzopyran derivatives and their use as anti-hypertensives” (Fujisawa Pharmaceutical Co., Ltd., priority 1988, dated 1991)
